Assay results reported in US20040009904A1, “APL immunoreactive peptides, conjugates thereof and methods of treatment for aPL antibody-mediated pathologies” (priority 1995, published 2004).
Each block holds one compound with its values, some of them ahead of it. Bridge positions count the residues as written; N and C are the ends. Peptide text beside a SMILES is read from it. * marks the point of attachment. FITC = O=C1OC2(c3ccc(O)cc3Oc3cc(O)ccc32)c2ccc(NC(=S)*)cc21

How the values were obtained:
[1] = biological target: ACA-6501 aPL antibody; assay: Competitive binding peptide-ELISA, plates coated with tetravalent peptide ACA-6501/3B10; set-up: species or system human; details: monomeric peptide, ACA-6501 serum
From the text: Once ELISA-positive peptides are identified, it is necessary to quantitate their relative binding affinity to the aPL antibodies and to determine whether or not two peptides bind the same population of antibodies in a given patient serum via a peptide-competition ELISA assay. In this assay, various monomeric peptides compete with tetravalent peptides coated on a microtitration plate well. To perform the assay, the peptides to be evaluated are synthesized as monomers, ie., without the lysine branches employed in the synthesis of the tetravalent peptides, using standard Fmoc chemistry. The monomeric peptides are then purified and dissolved at known concentrations. Wells of a microtitration plate are coated with a tetravalent peptide known to bind to the aPL antibody. Serial dilutions of the monomeric peptides are incubated with a constant dilution of the aPL antibody. The dilution of the aPL antibody was previously determined by titering the antibody against the tetravalent peptide and selecting a dilution on the downslope of the titration curve. After incubating the antibody and monomeric peptides for one hour, the antibody/peptide solutions are added to the microtitration wells and a standard […] ELISA is performed. The concentration of each monomeric peptide that decreases binding of the aPL antibody with the tetravalent peptide is determined by plotting the calorimetric readings obtained for each well. The 50% inhibition point is used as the measure of the relative strength of binding for the monomeric peptides.
(A) Each well of an Immulon II plate (Dynatech Laboratories, Inc., Chantilly Va.) was coated with 100 μL of a solution containing 10 μg tetravalent peptide ACA 6501/3B10 in 50 mM sodium carbonate, pH 9.5, containing 35 mM sodium bicarbonate (Fisher Scientific, Pittsburgh, Pa., reagent grade) for at least 1 hour at RT, except for three wells used as blank controls. […]

[2] = biological target: ACA-6501; assay: Direct binding fluorescence polarization binding assay (dbFP); set-up: species or system human
From the text: (§1) This assay detects direct binding of the peptide to aPL antibody. Since aPL antibodies bind to β2-GPI (the antigen), the ELISA competitive inhibition assay can show inhibition due to binding to β2-GPI as well inhibition due to binding of the peptide to the aPL antibody. Because binding to antibodies is required in order for the peptide to function as a Toleragen, it is essential to establish that a peptide can directly bind to an aPL antibody. This assay is used to determine the dissociation constants for peptides that bind to two aPL antibodies, ACA-6501 and ACA-6701. While the ELISA assay is useful for high throughput screening because it requires less antibody than the Fluorescence Polarization assay, however, ELISA-positive peptides should be further evaluated by the Fluorescence Polarization assay to determine whether they are capable of directly binding with aPL antibody.
The methodology is described in PanVera Application Guide (1994), PanVera Corporation. Briefly, a trace amount of fluorescein isothiocyanate (FITC) labeled peptide (CB2*-F) is titrated with antibody (ACA 6501 or 6701) and the polarization for the sample is plotted versus the antibody concentration. Polarization was measured with the PanVera Beacon instrument. Data were fitted to Equation 1. [formula] […]

[3] = biological target: ACA-6701; assay: Direct binding fluorescence polarization binding assay (dbFP) and displacement kinetics; set-up: species or system human; details: for Kd: dbFP
From the text: as §1
The methodology is described in PanVera Application Guide (1994), PanVera Corporation. Briefly, a trace amount of fluorescein isothiocyanate (FITC) labeled peptide (CB2*-F) is titrated with antibody (ACA 6501 or 6701) and the polarization for the sample is plotted versus the antibody concentration. Polarization was measured with the PanVera Beacon instrument. Data were fitted to Equation 1. [formula]
where Y is the Y-axis value (milli-polarization units, mP), R is the total concentration of antibody receptor, PL is the polarization for free FITC-labeled peptide (F), and PH is the polarization for F complexed with R (FR). KD is the dissociation constant (reciprocal binding, constant) for F from the FR complex. For these equations to be valid, it must be true that F<<R. This titration is shown in FIGS. 22 and 23 for CB2*-F binding to ACA-6701 and ACA-6501 antibodies, respectively. […] Thus, CB2*-F binding to ACA-6701 is limited only by diffusion of these two molecules together.

[4] = system: affinity-purified ACA-6501 aPL antibody; assay: Resin-bound peptide binding of affinity-purified IgG aPL antibody; set-up: species or system human; details: immunoconjugate color reaction, versus unrelated control peptide and normal IgG
From the text: Phage sequences obtained with affinity-purified ACA-6501 and found to be phage-ELISA-positive were synthesized on a solid support recently developed for combinatorial synthetic peptide libraries. This support, a Rapp resin, has a high peptide density and uses a hydrophilic polyethylene glycol spacer before the first amino acid is coupled. […] Similar results were obtained with the other phage-ELISA-positive peptides tested. In the experiment shown, resin peptide-bound affinity-purified ACA-6501 aPL antibody was detected by an immunoconjugate color reaction.

[5] = system: aPL sera; assay: Resin-bound peptide binding survey of patient sera; set-up: species or system human
From the text: Two peptides were selected for aPL sera testing, one (5A12) representing the ACA-6501 screen and another one (4D3) representing the ACA-6626 screen. […] However, a significant degree of crossreactivity was detectable especially between ACA-6501 and ACA-6626.

[6] = system: ACA-6501; assay: Phage-ELISA; assay type: binding, human; details: phage clones coated on wells, affACA-6501 2.5 μg/mL
Procedure: This method of selecting phage requires very tight binding of the insert to the screening antibody. Phage are directly coated onto wells of a microtitration plate and incubated with the screening antibody. Following washes to remove unbound antibody, an anti-human IgG alkaline phosphatase conjugate is added to bind any aPL antibodies bound to the phage. APL antibodies are then detected by adding a calorimetric substrate to the well which will react with alkaline phosphatase according to methods well known in the art.
Three mL cultures were prepared from 35 clones previously isolated with affinity purified ACA-6501 in several phage library screens as well as one fUSE 2 phage clone lacking a peptide insert which was used as a control. After centrifugation for 3 minutes at 17,000×g, 100 μL from each phage supernatant (adjusted to −2×10^11 particles/mL, based on absorbance) was added to microtitration plate wells (Falcon, Becton-Dickinson Labware, Lincoln Park, N.Y.) and allowed to incubate overnight at 4° C. Following four washes with TBS 7.4, the plate was blocked with 125 μL of 0.5% BSA/TBS for 1 hour at RT. After another four TBS washes, 100 μL of affACA-6501 previously diluted to 2.5 μg/mL in TBS/BSA was added to each well and allowed to incubate 1 hour at 37° C. Following an additional four washes, 100 μL anti-human IgG diluted 1:1000 in TBS/0.5% Tween was added to each well. After 1 hour at RT, enzyme substrate was added and the incubation allowed to proceed for 2 hours. Following the addition of 50 μL 0.2 M Na2HPO4 to stop the reaction, absorbance was measured at 550 nm in the automated plate absorbance reader. […] The sequences for these clones are showvn in Table 2.

Structure (SMILES): CC(C)C[C@@H]1NC(=O)[C@H](CC(C)C)NC(=O)[C@H](CC(C)C)NC(=O)[C@@H](NC(=O)[C@@H]2CCCN2C(=O)CNC(=O)[C@H](C)N)CSSC[C@@H](C(=O)N2CCC[C@H]2C(=O)NCC(=O)O)NC(=O)[C@H](CCCNC(=N)N)NC(=O)[C@H](CC(=O)O)NC(=O)[C@@H]2CCCN2C(=O)[C@H](C)NC1=O [peptide 143] (H-AGPCLLLAPDRCPG-OH; disulfide 4-12)
- amount of peptide producing 50% inhibition of binding of ACA-6501 aPL antibody to tetravalent peptide ACA-6501/3B10 [1]: 0.9 µg

Structure (SMILES): CC(C)C[C@@H]1NC(=O)[C@H](CC(C)C)NC(=O)[C@H](CC(C)C)NC(=O)[C@@H](NC(=O)[C@@H]2CCCN2)CSSC[C@@H](C(=O)N2CCC[C@H]2C(=O)NCC(=O)O)NC(=O)[C@H](CCCNC(=N)N)NC(=O)[C@H](CC(=O)O)NC(=O)[C@@H]2CCCN2C(=O)[C@H](C)NC1=O [peptide 139] (H-PCLLLAPDRCPG-OH; disulfide 2-10)
- amount of peptide producing 50% inhibition of binding of ACA-6501 aPL antibody to tetravalent peptide ACA-6501/3B10 [1]: 6.9 µg

Structure (SMILES): CC[C@H](C)[C@@H]1NC(=O)[C@H](CC(C)C)NC(=O)[C@@H](NC(=O)[C@@H]2CCCN2C(=O)CNC(=O)[C@H](C)N)CSSC[C@@H](C(=O)N2CCC[C@H]2C(=O)NCC(=O)O)NC(=O)[C@H](CCCNC(=N)N)NC(=O)[C@H](CC(=O)O)NC(=O)[C@@H]2CCCN2C(=O)[C@H](C)NC(=O)[C@H](CC(C)C)NC1=O [5A12, CLILAPDRC]
- binding of affinity-purified ACA-6501 to resin-bound peptide [4]: dramatically outperformed an unrelated control peptide while not binding normal IgG
- pathologic sera (moderate to high GPL) with detectable peptide binding ([5]; 13 pathologic sera): 8 of the 13
- control sera (low or no GPL score) with low peptide binding ([5]; 19 patient sera): 2 out of 19
- signal in the phage-ELISA [6]: significant signals

More lines, now with the values ahead:

- amount of peptide producing 50% inhibition of binding of ACA-6501 aPL antibody to tetravalent peptide ACA-6501/3B10 [1]: 0.7 µg
Structure (SMILES): CC(C)C[C@@H]1NC(=O)[C@H](CC(C)C)NC(=O)[C@H](CC(C)C)NC(=O)[C@@H](NC(=O)[C@@H]2CCCN2C(=O)CN)CSSC[C@@H](C(=O)N2CCC[C@H]2C(=O)NCC(=O)O)NC(=O)[C@H](CCCNC(=N)N)NC(=O)[C@H](CC(=O)O)NC(=O)[C@@H]2CCCN2C(=O)[C@H](C)NC1=O [peptide 142] (H-GPCLLLAPDRCPG-OH; disulfide 3-11)

- Kd ([2]; dbFP titration of FIG. 24, from Equation 1, not corrected for antibody bivalency): 241 nM
- Kd ([2]; dbFP, multiplied by 2 to correct for antibody bivalency): 482 nM
- Kd ([3]; from Equation 1, not corrected for antibody bivalency): 256 nM
- Kd ([3]; multiplied by 2 to correct for antibody bivalency): 512 nM
- dissociation rate constant Koff ([3]; displacement of CB2*-F from 6701 by slight excess of CB2*): 0.0184 s⁻¹
- association rate constant Kon ([3]; from KD and Koff, after correcting for antibody bivalency): 36000 M⁻¹ s⁻¹
Structure (SMILES): CC[C@H](C)[C@@H]1NC(=O)[C@@H](NC(=O)[C@@H]2CCCN2C(=O)CNC(=S)Nc2ccc3c(c2)C(=O)OC32c3ccc(O)cc3Oc3cc(O)ccc32)CSSC[C@@H](C(=O)NCC(=O)O)NC(=O)[C@H](CCCNC(=N)N)NC(=O)[C@H](CC(=O)O)NC(=O)[C@H](CCCNC(=N)N)NC(=O)[C@H](C)NC(=O)[C@H](CC(C)C)NC(=O)[C@H](CC(C)C)NC1=O [CB2*-F, FITC-GPCILLARDRCG] ({FITC}-GPCILLARDRCG-OH; disulfide 3-11)
